Experimental data published in ChEMBL document CHEMBL1697731, “Cheminformatics analysis of assertions mined from literature that describe drug-induced liver injury in different species” (Chem Res Toxicol, 2010).

Assays:
Hepatotoxicity [1] = assay: Literature-mined compound from Fourches et al multi-species drug-induced liver injury (DILI) dataset, effect in humans; conditions: human
Hepatotoxicity [2] = assay: Literature-mined compound from Fourches et al multi-species drug-induced liver injury (DILI) dataset, effect in non-rodents
Hepatotoxicity [3] = assay: Literature-mined compound from Fourches et al multi-species drug-induced liver injury (DILI) dataset, effect in rodents; conditions: rodentia

SMILES	Hepatotoxicity (Hepatotoxicity [1])	Hepatotoxicity (Hepatotoxicity [2])	Hepatotoxicity (Hepatotoxicity [3])	Hepatotoxicity (Hepatotoxicity [1]; Liver)	Hepatotoxicity (Hepatotoxicity [2]; Liver)	Hepatotoxicity (Hepatotoxicity [3]; Liver)
CCC(=O)[O-].[Na+] [SODIUM PROPIONATE]	no drug-induced liver injury reported	no drug-induced liver injury reported	drug-induced liver injury reported	–	–	–
CNC(=O)c1cc(Oc2ccc(NC(=O)Nc3ccc(Cl)c(C(F)(F)F)c3)cc2)ccn1.Cc1ccc(S(=O)(=O)O)cc1 [SORAFENIB TOSYLATE]	drug-induced liver injury reported	no drug-induced liver injury reported	no drug-induced liver injury reported	–	–	–
OC[C@@H](O)[C@@H](O)[C@H](O)[C@@H](O)CO [SORBITOL]	drug-induced liver injury reported	no drug-induced liver injury reported	drug-induced liver injury reported	–	–	–
CC(C)NCC(O)c1ccc(NS(C)(=O)=O)cc1 (stereo not given) [SOTALOL]	no drug-induced liver injury reported	no drug-induced liver injury reported	drug-induced liver injury reported	–	–	–
Oc1c2ccccc2c2c3c(cccc13)N=N2 [SP-600125]	drug-induced liver injury reported	no drug-induced liver injury reported	drug-induced liver injury reported	–	–	–
C[C@@H]1CN(c2c(F)c(N)c3c(=O)c(C(=O)O)cn(C4CC4)c3c2F)C[C@H](C)N1 [SPARFLOXACIN]	drug-induced liver injury reported	no drug-induced liver injury reported	no drug-induced liver injury reported	–	–	–
CC(=O)S[C@@H]1CC2=CC(=O)CC[C@]2(C)[C@H]2CC[C@@]3(C)[C@@H](CC[C@@]34CCC(=O)O4)[C@H]12 [SPIRONOLACTONE]	drug-induced liver injury reported	no drug-induced liver injury reported	drug-induced liver injury reported	–	–	–
C[C@]12Cc3c[nH]nc3C[C@@H]1CC[C@@H]1[C@@H]2CC[C@@]2(C)[C@H]1CC[C@]2(C)O [STANOZOLOL]	drug-induced liver injury reported	no drug-induced liver injury reported	drug-induced liver injury reported	–	–	–
Cc1cn([C@H]2C=C[C@@H](CO)O2)c(=O)[nH]c1=O [STAVUDINE]	drug-induced liver injury reported	no drug-induced liver injury reported	drug-induced liver injury reported	–	–	–
[H]/N=C(/N)N[C@H]1[C@H](O)[C@@H](O)[C@H](O[C@@H]2O[C@@H](C)[C@](O)(C=O)[C@H]2O[C@@H]2O[C@@H](CO)[C@H](O)[C@@H](O)[C@@H]2NC)[C@@H](N/C(N)=N\[H])[C@@H]1O [STREPTOMYCIN]	–	–	–	drug-induced liver injury reported	drug-induced liver injury reported	drug-induced liver injury reported
CN(N=O)C(=O)N[C@@H](C=O)[C@@H](O)[C@H](O)[C@H](O)CO [STREPTOZOCIN]	no drug-induced liver injury reported	drug-induced liver injury reported	drug-induced liver injury reported	–	–	–
OC[C@H]1O[C@@](CO)(O[C@H]2O[C@H](CO)[C@@H](O)[C@H](O)[C@H]2O)[C@@H](O)[C@@H]1O [SUCROSE]	no drug-induced liver injury reported	drug-induced liver injury reported	drug-induced liver injury reported	–	–	–
CC1(C)[C@H](C(=O)O)N2C(=O)C[C@H]2S1(=O)=O [SULBACTAM]	drug-induced liver injury reported	no drug-induced liver injury reported	no drug-induced liver injury reported	–	–	–
Nc1ccc(S(=O)(=O)Nc2ncccn2)cc1 [SULFADIAZINE]	–	–	–	drug-induced liver injury reported	no drug-induced liver injury reported	no drug-induced liver injury reported
COc1cc(NS(=O)(=O)c2ccc(N)cc2)nc(OC)n1 [SULFADIMETHOXINE]	drug-induced liver injury reported	no drug-induced liver injury reported	no drug-induced liver injury reported	–	–	–
COc1ncnc(NS(=O)(=O)c2ccc(N)cc2)c1OC [SULFADOXINE]	no drug-induced liver injury reported	drug-induced liver injury reported	no drug-induced liver injury reported	–	–	–
Cc1ccnc(NS(=O)(=O)c2ccc(N)cc2)n1 [SULFAMERAZINE]	no drug-induced liver injury reported	no drug-induced liver injury reported	drug-induced liver injury reported	–	–	–
Cc1cc(C)nc(NS(=O)(=O)c2ccc(N)cc2)n1 [SULFAMETHAZINE]	drug-induced liver injury reported	no drug-induced liver injury reported	drug-induced liver injury reported	–	–	–

SMILES	Hepatotoxicity (Hepatotoxicity [1])	Hepatotoxicity (Hepatotoxicity [2])	Hepatotoxicity (Hepatotoxicity [3])	Hepatotoxicity (Hepatotoxicity [1]; Liver)	Hepatotoxicity (Hepatotoxicity [2]; Liver)	Hepatotoxicity (Hepatotoxicity [3]; Liver)
Cc1nnc(NS(=O)(=O)c2ccc(N)cc2)s1 [SULFAMETHIZOLE]	drug-induced liver injury reported	no drug-induced liver injury reported	no drug-induced liver injury reported	–	–	–
Cc1cc(NS(=O)(=O)c2ccc(N)cc2)no1 [SULFAMETHOXAZOLE]	–	–	–	drug-induced liver injury reported	no drug-induced liver injury reported	no drug-induced liver injury reported
Nc1ccc(S(N)(=O)=O)cc1 [SULFANILAMIDE]	–	–	–	drug-induced liver injury reported	no drug-induced liver injury reported	no drug-induced liver injury reported
Nc1ccc(S(=O)(=O)Nc2ccnn2-c2ccccc2)cc1 [SULFAPHENAZOLE]	drug-induced liver injury reported	no drug-induced liver injury reported	drug-induced liver injury reported	–	–	–
Nc1ccc(S(=O)(=O)Nc2ccccn2)cc1 [SULFAPYRIDINE]	no drug-induced liver injury reported	no drug-induced liver injury reported	drug-induced liver injury reported	–	–	–
O=C(O)c1cc(/N=N/c2ccc(S(=O)(=O)Nc3ccccn3)cc2)ccc1O [SULFASALAZINE]	drug-induced liver injury reported	no drug-induced liver injury reported	drug-induced liver injury reported	–	–	–
O=C1C(CC[S+]([O-])c2ccccc2)C(=O)N(c2ccccc2)N1c1ccccc1 (stereo not given) [SULFINPYRAZONE]	drug-induced liver injury reported	no drug-induced liver injury reported	no drug-induced liver injury reported	–	–	–
CCCCCCCCNC(C)C(O)c1ccc(SC(C)C)cc1 (stereo not given) [SULOCTIDIL]	drug-induced liver injury reported	no drug-induced liver injury reported	no drug-induced liver injury reported	–	–	–
CCN1CCCC1CNC(=O)c1cc(S(N)(=O)=O)ccc1OC (stereo not given) [SULPIRIDE]	drug-induced liver injury reported	drug-induced liver injury reported	no drug-induced liver injury reported	–	–	–
CC(C(=O)O)c1ccc(C(=O)c2cccs2)cc1 (stereo not given) [SUPROFEN]	drug-induced liver injury reported	no drug-induced liver injury reported	no drug-induced liver injury reported	–	–	–
Cc1ccc(C(=O)Nc2ccc(S(=O)(=O)O)c3cc(S(=O)(=O)O)cc(S(=O)(=O)O)c23)cc1NC(=O)c1cccc(NC(=O)Nc2cccc(C(=O)Nc3cc(C(=O)Nc4ccc(S(=O)(=O)O)c5cc(S(=O)(=O)O)cc(S(=O)(=O)O)c45)ccc3C)c2)c1 [SURAMIN]	drug-induced liver injury reported	drug-induced liver injury reported	drug-induced liver injury reported	–	–	–
Cl.Nc1c2c(nc3ccccc13)CCCC2 [TACRINE HYDROCHLORIDE]	–	–	–	no drug-induced liver injury reported	no drug-induced liver injury reported	drug-induced liver injury reported
C=CC[C@@H]1/C=C(\C)C[C@H](C)C[C@H](OC)[C@H]2O[C@@](O)(C(=O)C(=O)N3CCCC[C@H]3C(=O)O[C@H](/C(C)=C/[C@@H]3CC[C@@H](O)[C@H](OC)C3)[C@H](C)[C@@H](O)CC1=O)[C@H](C)C[C@@H]2OC [TACROLIMUS ANHYDROUS]	drug-induced liver injury reported	no drug-induced liver injury reported	drug-induced liver injury reported	–	–	–
O=C(OC[C@H]1O[C@@H](OC(=O)c2cc(O)c(O)c(OC(=O)c3cc(O)c(O)c(O)c3)c2)[C@H](OC(=O)c2cc(O)c(O)c(OC(=O)c3cc(O)c(O)c(O)c3)c2)[C@@H](OC(=O)c2cc(O)c(O)c(OC(=O)c3cc(O)c(O)c(O)c3)c2)[C@@H]1OC(=O)c1cc(O)c(O)c(OC(=O)c2cc(O)c(O)c(O)c2)c1)c1cc(O)c(O)c(OC(=O)c2cc(O)c(O)c(O)c2)c1 [TANNIC ACID]	no drug-induced liver injury reported	drug-induced liver injury reported	drug-induced liver injury reported	–	–	–
O=c1[nH]c(=O)n(C2CCCO2)cc1F (stereo not given) [TEGAFUR]	drug-induced liver injury reported	no drug-induced liver injury reported	no drug-induced liver injury reported	–	–	–
CC[C@H]1OC(=O)[C@H](C)C(=O)[C@H](C)[C@@H](O[C@@H]2O[C@H](C)C[C@H](N(C)C)[C@H]2O)[C@](C)(OC)C[C@@H](C)C(=O)[C@H](C)[C@H]2N(CCCCn3cnc(-c4cccnc4)c3)C(=O)O[C@]12C [TELITHROMYCIN]	–	–	–	drug-induced liver injury reported	no drug-induced liver injury reported	drug-induced liver injury reported
Cn1nnc2c(C(N)=O)ncn2c1=O [TEMOZOLOMIDE]	drug-induced liver injury reported	no drug-induced liver injury reported	no drug-induced liver injury reported	–	–	–
